The target in experiment [1] is T1, activated ERK2 (Homo sapiens (Human), UniProt P28482). Put plainly: Activated ERK2 kinase assay, ERK2 New conditions (AlphaScreen, ERKtide phosphorylation). Conditions: 0.25 nM ERK2, 200 nM ERKtide peptide, 35 μM ATP, 30 min preincubation. It counts as biochemical. The method in brief:
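Read-out is AlphaScreen with anti-phospho-EGFR (Thr669) antibody after EDTA quench and overnight dark incubation. Reaction: 0.25 nM ERK2, 30 min compound preincubation, then 200 nM ERKtide plus 35 µM ATP for 2–3 h at ambient temperature, pH 7.5. IC50 by four-parameter fit.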

Experiment [2] has as its target T1, activated ERK2. Put plainly: Activated ERK2 (20 pM) Kinase Assay (AlphaScreen, ERKtide phosphorylation). It counts as biochemical. Conditions: 0.02 nM ERK2, 400 nM ERKtide peptide, 35 μM ATP, 30 min preincubation. The method in brief: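 AlphaScreen read-out (anti-phospho-EGFR Thr669 antibody, protein A acceptor/streptavidin donor beads) of ERKtide (400 nM) phosphorylation by 20 pM activated ERK2 at 35 μM ATP.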

T1 sequence (P28482 whole entry): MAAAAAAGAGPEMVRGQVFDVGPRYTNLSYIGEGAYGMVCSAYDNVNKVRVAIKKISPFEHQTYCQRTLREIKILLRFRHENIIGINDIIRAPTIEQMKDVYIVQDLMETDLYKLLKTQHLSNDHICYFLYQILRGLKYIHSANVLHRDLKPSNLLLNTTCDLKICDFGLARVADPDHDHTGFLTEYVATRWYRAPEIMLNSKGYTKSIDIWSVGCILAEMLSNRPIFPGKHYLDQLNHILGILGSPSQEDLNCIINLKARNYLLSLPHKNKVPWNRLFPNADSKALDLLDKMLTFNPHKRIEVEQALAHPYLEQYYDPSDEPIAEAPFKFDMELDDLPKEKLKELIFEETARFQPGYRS

Take `CN1CC[C@H](c2cnc(N)c(-c3ccc(C(=O)N[C@H](CO)c4cccc(Cl)c4)c(F)c3)c2)CC1=O` [Example 28, 4-(2-amino-5-((S)-1-methyl-2-oxopiperidin-4-yl)pyridin-3-yl)-N—((S)-1-(3-chlorophenyl)-2-hydroxyethyl)-2-fluorobenzamide]: the IC50 was found to be 2.55 nM on activated ERK2 [1] and 1.2 nM on activated ERK2 [2].
Regarding `C[C@@H](NC(=O)c1ccc(-c2cc([C@@H]3CCN(C)C(=O)C3)cnc2N)cc1F)c1ccccc1` [Example 30, 4-(2-amino-5-((R)-1-methyl-2-oxopiperidin-4-yl)pyridin-3-yl)-2-fluoro-N—((R)-1-phenylethyl)benzamide], the concentration for half-maximal inhibition (IC50) at activated ERK2 [1] worked out at 69.5 nM; at activated ERK2 [2] it was 22.5 nM.
In the same order, the values of `C[C@@H](NC(=O)c1ccc(-c2cc([C@H]3CCN(C)C(=O)C3)cnc2N)cc1F)c1ccccc1` [Example 31, 4-(2-amino-5-((S)-1-methyl-2-oxopiperidin-4-yl)pyridin-3-yl)-2-fluoro-N—((R)-1-phenylethyl)benzamide] are 74 nM and 32 nM.
Take `C[C@@H](NC(=O)c1ccc(-c2cc([C@H]3CCC(=O)N(C)C3)cnc2N)cc1F)c1cccc(Cl)c1` [Example 39, 4-(2-amino-5-((R)-1-methyl-6-oxopiperidin-3-yl)pyridin-3-yl)-N—((R)-1-(3-chlorophenyl)ethyl)-2-fluorobenzamide]: the IC50 against activated ERK2 [1] came to 2.48 nM; on activated ERK2 [2] it was 1.3 nM.
For `C[C@@H](NC(=O)c1ccc(-c2cc([C@@H]3CCC(=O)N(C)C3)cnc2N)cc1F)c1cccc(Cl)c1` [Example 40, 4-(2-amino-5-((S)-1-methyl-6-oxopiperidin-3-yl)pyridin-3-yl)-N—((R)-1-(3-chlorophenyl)ethyl)-2-fluorobenzamide], in that order: 2.46 nM and 1.26 nM.
For `CO[C@H]1CC[C@H](c2cnc(N)c(-c3ccc(C(=O)NCc4ccccc4)c(F)c3)n2)CC1` [Example 116, 4-(3-amino-6-((1r,4r)-4-methoxycyclohexyl)pyrazin-2-yl)-N-benzyl-2-fluorobenzamide], in that order: 18.9 nM and 9.42 nM.
In the same order, the values of `Cc1nn(C)cc1-c1cnc(N)c(-c2ccc(C(=O)N[C@H](CO)c3cccc(Cl)c3)c(F)c2)n1` [Example 127, (S)-4-(3-amino-6-(1,3-dimethyl-1H-pyrazol-4-yl)pyrazin-2-yl)-N-(1-(3-chlorophenyl)-2-hydroxyethyl)-2-fluorobenzamide] are 0.243 nM and 0.0604 nM.
As to `Cc1c(-c2cnc(N)c(-c3ccc(C(=O)N[C@H](CO)c4cccc(Cl)c4)c(F)c3)c2)cnn1C` [Example 151, (S)-4-(2-amino-5-(1,5-dimethyl-1H-pyrazol-4-yl)pyridin-3-yl)-N-(1-(3-chlorophenyl)-2-hydroxyethyl)-2-fluorobenzamide], the IC50 turned out to be 0.115 nM against activated ERK2 [1] and 0.0233 nM against activated ERK2 [2].
In the same order, the values of `Cc1nn(C)cc1-c1cnc(N)c(-c2ccc(C(=O)N[C@H](CO)c3cccc(Cl)c3)c(F)c2)c1` [Example 152, (S)-4-(2-amino-5-(1,3-dimethyl-1H-pyrazol-4-yl)pyridin-3-yl)-N-(1-(3-chlorophenyl)-2-hydroxyethyl)-2-fluorobenzamide] are 0.145 nM and 0.041 nM.
Regarding `COCCn1cc(-c2cnc(N)c(-c3ccc(C(=O)N[C@H](CO)c4cccc(Cl)c4)c(F)c3)c2)cn1` [Example 172, (S)-4-(2-amino-5-(1-(2-methoxyethyl)-1H-pyrazol-4-yl)pyridin-3-yl)-N-(1-(3-chlorophenyl)-2-hydroxyethyl)-2-fluorobenzamide], the concentration for half-maximal inhibition (IC50) on activated ERK2 [1] stood at 0.158 nM; at activated ERK2 [2], 0.0785 nM.
With `Nc1ncc([C@H]2CC[C@H](N)CC2)nc1-c1ccc(C(=O)N[C@H](CO)c2cccc(Cl)c2)c(F)c1` [Example 191, 4-(3-amino-6-((1r,45)-4-aminocyclohexyl)pyrazin-2-yl)-N—((S)-1-(3-chlorophenyl)-2-hydroxyethyl)-2-fluorobenzamide], the half-maximal inhibitory concentration (IC50) on activated ERK2 [1] is 4.53 nM; against activated ERK2 [2] it was 1.49 nM.
For `Nc1ncc([C@H]2CC[C@@H](N)CC2)nc1-c1ccc(C(=O)N[C@H](CO)c2cccc(Cl)c2)c(F)c1` [Example 192, 4-(3-amino-6-((1s,4R)-4-aminocyclohexyl)pyrazin-2-yl)-N—((S)-1-(3-chlorophenyl)-2-hydroxyethyl)-2-fluorobenzamide], the figures for the half-maximal inhibitory concentration (IC50) against activated ERK2 [1] and on activated ERK2 [2] were 8.04 nM and 4.93 nM, respectively.
For `Cn1cc(-c2cnc(N)c(-c3ccc(C(=O)N[C@H](CO)c4cccc(Cl)c4)c(F)c3)c2)cn1` [Example 263, (S)-4-(2-amino-5-(1-methyl-1H-pyrazol-4-yl)pyridin-3-yl)-N-(1-(3-chlorophenyl)-2-hydroxyethyl)-2-fluorobenzamide], in that order: 0.191 nM and 0.0923 nM.
Regarding `Nc1ncc(C2CCOCC2)nc1-c1ccc(C(=O)N[C@H](CO)c2cccc(F)c2)c(F)c1` [Example 279, (S)-4-(3-amino-6-(tetrahydro-2H-pyran-4-yl)pyrazin-2-yl)-2-fluoro-N-(1-(3-fluorophenyl)-2-hydroxyethyl) benzamide], the values for the IC50 on activated ERK2 [1] and against activated ERK2 [2] were 0.518 nM and 0.429 nM, respectively.
`Cc1cccc([C@@H](CO)NC(=O)c2ccc(-c3cc(-c4cn(C)nc4C)cnc3N)cc2F)c1` [Example 283, (S)-4-(2-amino-5-(1,3-dimethyl-1H-pyrazol-4-yl)pyridin-3-yl)-2-fluoro-N-(2-hydroxy-1-(m-tolyl)ethyl) benzamide]: the half-inhibitory concentration (IC50) against activated ERK2 [1] worked out at 0.169 nM; at activated ERK2 [2], 0.0378 nM.
In the same order, the values of `Cn1cc(-c2cnc(N)c(-c3ccc(C(=O)N[C@H](CO)c4cc(F)cc(Cl)c4)c(F)c3)c2)cn1` [Example 289, (S)-4-(2-amino-5-(1-methyl-1H-pyrazol-4-yl)pyridin-3-yl)-N-(1-(3-chloro-5-fluorophenyl)-2-hydroxyethyl)-2-fluorobenzamide] are 0.192 nM and 0.0814 nM.
For `CCn1cc(-c2cnc(N)c(-c3ccc(C(=O)N[C@H](CO)c4cccc(Cl)c4)c(F)c3)c2)cn1` [Example 297, (S)-4-(2-amino-5-(1-ethyl-1H-pyrazol-4-yl)pyridin-3-yl)-N-(1-(3-chlorophenyl)-2-hydroxyethyl)-2-fluorobenzamide], in that order: 0.153 nM and 0.0715 nM.
For `Cn1nncc1-c1cnc(N)c(-c2ccc(C(=O)N[C@H](CO)c3cccc(Cl)c3)c(F)c2)c1` [Example 300, (S)-4-(2-amino-5-(1-methyl-1H-1,2,3-triazol-5-yl)pyridin-3-yl)-N-(1-(3-chlorophenyl)-2-hydroxyethyl)-2-fluorobenzamide], in that order: 0.228 nM and 0.0655 nM.
Take `Cc1cccc([C@@H](CO)NC(=O)c2ccc(-c3nc(C4CCOCC4)cnc3N)cc2F)c1` [Example 309, (S)-4-(3-amino-6-(tetrahydro-2H-pyran-4-yl)pyrazin-2-yl)-2-fluoro-N-(2-hydroxy-1-(m-tolyl)ethyl) benzamide]: the IC50 at activated ERK2 [1] amounted to 0.104 nM; on activated ERK2 [2], 0.0263 nM.
For `Nc1ncc(C2CCCCC2)nc1-c1ccc(C(=O)NCc2ccccc2)c(F)c1` [Example 421, 4-(3-amino-6-cyclo-hexylpyrazin-2-yl)-N-benzyl-2-fluorobenzamide], the IC50 on activated ERK2 [1] turned out to be 12.6 nM; against activated ERK2 [2], 6.38 nM.
For `C[C@@H](NC(=O)c1ccc(-c2nc(C3CCCCC3)cnc2N)cc1F)c1cc(F)cc(S(C)(=O)=O)c1` [Example 423, (R)-4-(3-amino-6-cyclo-hexylpyrazin-2-yl)-2-fluoro-N-(1-(3-fluoro-5-(methylsulfonyl)phenyl)ethyl) benzamide], in that order: 0.147 nM and 0.0614 nM.
In the same order, the values of `Nc1ncc(C2=CCCCC2)nc1-c1ccc(C(=O)NCc2ccccc2)c(F)c1` [Example 424, 4-(3-amino-6-(cyclohex-1-en-1-yl)pyrazin-2-yl)-N-benzyl-2-fluorobenzamide] are 155 nM and 113 nM.
For `Nc1ncc(C2=CCCCC2)nc1-c1ccc(C(=O)N[C@H](CO)c2cccc(Cl)c2)c(F)c1` [Example 425, (S)-4-(3-amino-6-(cyclohex-1-en-1-yl)pyrazin-2-yl)-N-(1-(3-chlorophenyl)-2-hydroxyethyl)-2-fluorobenzamide], in that order: 0.907 nM and 0.359 nM.
Regarding `C[C@@H](NC(=O)c1ccc(-c2nc(C3=CCCCC3)cnc2N)cc1F)c1cc(F)cc(S(C)(=O)=O)c1` [Example 426, (R)-4-(3-amino-6-(cyclohex-1-en-1-yl)pyrazin-2-yl)-2-fluoro-N-(1-(3-fluoro-5-(methylsulfonyl)phenyl)ethyl) benzamide], the figures for the IC50 at activated ERK2 [1] and against activated ERK2 [2] were 1.36 nM and 0.585 nM, respectively.
In the same order, the values of `Nc1ncc(C2=CCOCC2)nc1-c1ccc(C(=O)NCc2ccccc2)c(F)c1` [Example 427, 4-(3-amino-6-(3,6-dihydro-2H-pyran-4-yl)pyrazin-2-yl)-N-benzyl-2-fluorobenzamide] are 16.7 nM and 6.41 nM.
On to `Nc1ncc(C2=CCOCC2)nc1-c1ccc(C(=O)N[C@H](CO)c2cccc(Cl)c2)c(F)c1` [Example 428, (S)-4-(3-amino-6-(3,6-dihydro-2H-pyran-4-yl)pyrazin-2-yl)-N-(1-(3-chlorophenyl)-2-hydroxyethyl)-2-fluorobenzamide], for which the values for the 50% inhibitory concentration (IC50) against activated ERK2 [1] and against activated ERK2 [2] were 0.219 nM and 0.0759 nM, respectively.
For `C[C@@H](NC(=O)c1ccc(-c2nc(C3=CCOCC3)cnc2N)cc1F)c1cc(F)cc(S(C)(=O)=O)c1` [Example 429, (R)-4-(3-amino-6-(3,6-dihydro-2H-pyran-4-yl)pyrazin-2-yl)-2-fluoro-N-(1-(3-fluoro-5-(methylsulfonyl)phenyl)ethyl) benzamide], in that order: 0.503 nM and 0.221 nM.

The values above are taken from patent US9242996B2 (Novartis AG, priority 2013, dated 2016).
